The source of these data is patent US20240261236A1, “METHODS OF USING NMDA RECEPTOR ANTAGONISTS” (Seelos Therapeutics, Inc., priority 2021, published 2024).

The test system of assay [1] is adults with major depressive disorder (MDD) who are at imminent risk of suicide. In words: S-STS CMCM clinician judgment, risk of suicide at this time. The format is in vivo, human. To be noted: 90 mg IN+SOC; for S-STS CMCM score (range 0-9; risk of suicide at this time, FIGS. 20A-20B): 24 hours post-administration. From the text: The S-STS CMCM (version 01/01/19) is a clinician-rated outcome measure which assesses SI/B on a standard 22-item scale, as well as multiple patient and clinician-rated items. The first 16 items are rated on a Likert-type scale ranging from “not at all” (0 units) to “extremely” (4 units), where select scoring (i.e., 4 specific items are scored based on the highest score on 2 of those items) yields a total score ranging from 0 units to 52 units. The final 6 items are used only when the patient misses a visit and is unable to complete the scale; if that missed visit is due to attempted or completed suicide, the possible maximum score is 100. The CMCM also yields 5 different single-item global assessments: 1) subject-rated likelihood of a suicide attempt; 2) subject-rated treatment needed; 3) clinician global severity of suicidal impulses, thoughts, and behaviors; 4) clinician judgment of suicide risk at this time and level of management needed for suicidality; and 5) clinician judgment of subject's likelihood of making a suicide attempt or of dying by suicide in the next 7 days.
(§1) The secondary endpoints are the change from baseline at 24 hours, as well as at Day 16, in the following: • (1) S-STS total score • (2) MADRS Total at Day 16 (only) • (3) Clinical Global Impression (CGI) of Severity for SI/B (CGIS-SI/B) and Change in SI/B (CGIC-SI/B) • (4) Patient Global Impression (PGI) of Severity for SI/B (PGIS-SI/B) and Change in SI/B (PGIC-SI/B • (5) S-STS Clinician-Rated Global Severity of Suicidal Impulses, Thoughts, and Behaviors • (6) S-STS Clinician judgment of subject's risk of a suicide attempt or death by suicide at this time • (7) S-STS Clinician judgment of subject's likelihood (risk) of making a suicide attempt or of dying by suicide in the next 7 days • (8) S-STS Subject-rated global severity of suicidal impulses, thoughts, and behavior • (9) S-STS Subject-rated treatment needed score • (10) MADRS item 10 response rate (response ≤3 units) • (11) MADRS Total response (total score ≥50% reduction from baseline) • (12) MADRS Total remission (total score ≤12 units)

For assay [2] the test system is unchanged. The assay can be described thus: MADRS item 10 (suicidal thoughts), Phase 2 Part 1. The class given is in vivo, human. To be noted: for MADRS item 10 (suicidality) score: 24 hours post-administration, baseline 5 units; for MADRS Item 10 mean score: baseline 5.2; for MADRS Suicide Item-10 response rate: summary through Day 29/30.
Excerpt: The Montgomery-Åsberg Depression Rating Scale (MADRS) is a diagnostic questionnaire that can be used to measure the severity of a depressive episode in a subject. In some embodiments, the MADRS can be used to measure suicidal ideation. For example, the MADRS includes 10 items directed to the following: 1) apparent sadness (e.g., representing despondency, gloom and despair that is more than just ordinary transient low spirits that is reflected in speech, facial expression, and posture); 2) reported sadness (e.g., representing reports of depressed mood, regardless of whether it is reflected in appearance or not and can include low spirits, despondency or the feeling of being beyond help and without hope); 3) inner tension (e.g., representing feelings of ill-defined discomfort, edginess, inner turmoil, mental tension mounting to either panic, dread or anguish); 4) reduced sleep (e.g., representing the experience of reduced duration or depth of sleep compared to the subject's own normal pattern when well); 5) reduced appetite (e.g., representing the feeling of a loss of appetite compared with when-well); 6) concentration difficulties (e.g., representing difficulties in collecting one's thoughts mounting to an incapacitating lack of concentration); 7) lassitude (e.g., representing difficulty in getting started or slowness in initiating and performing everyday activities); 8) inability to feel (e.g., representing the subjective experience of reduced interest in the surroundings, or activities that normally give pleasure, and the ability to react with adequate emotion to circumstances or people is reduced); 9) pessimistic thoughts (e.g., representing thoughts of guilt, inferiority, self-reproach, sinfulness, remorse and ruin); and 10) suicidal thoughts (e.g., representing the feeling that life is not worth living, that a natural death would be welcome, suicidal thoughts, and preparations for suicide). Each item is rated from 0 units to 6 units, with 0 reflecting that the subject is not at all as described by the item and 6 reflecting that the subject is extremely like what is described by the item. […] As another example, for suicidal thoughts, a score of 0 units can indicate that the subject enjoys life or takes it as it comes; a score of 2 units can indicate that the subject is weary of life and may have fleeting suicidal thoughts; a score of 4 units can indicate that the subject feels he or she would probably be better off dead (e.g., suicidal thoughts are common, and suicide is considered as a possible solution, but without specific plans or intention); and a score of 6 units can indicate that the subject has explicit plans for suicide when there is an opportunity (e.g., the subject has made active preparations for suicide). Thus, the total score, after summation of each score for each item, is on a scale of 0 units to 60 units.
In some embodiments, item 10, e.g., suicidal thoughts, of the MADRS can be used to measure suicidal ideation.
as §1, with “≤12 units) […]” for “≤12 units)”

Regarding `CNC1(c2ccccc2Cl)CCCCC1=O` (racemic) [intranasal racemic ketamine, 1:1 mixture of the two enantiomers of ketamine: (R)-2-(2-chlorophenyl)-2-(methylamino)cyclohexanone and (S)-2-(2-chlorophenyl)-2-(methylamino)cyclohexanone], the “S-STS CMCM score (range 0-9; risk of suicide at this time, FIGS. 20A-20B)” value in assay [1] (Subject 1, baseline 7 units) came out at 3 units; in assay [1] (Subject 2, from 7 units), 3 units. In addition, the “S-STS CMCM score (range 0-9; risk of suicide at this time)” value was 2 units in assay [1] (Subject 1, Day 9); “zero” in assay [1] (Subject 2, Day 9); 2 units in assay [1] (Subjects 1 and 2, Day 8). The “sustained response on MADRS Item 10, time after the final administration” value in assay [2] (90 mg IN+SOC) turned out to be 15 days. Besides, the “MADRS item 10 (suicidality) score” value in assay [2] (90 mg IN+SOC, Subject 1, range 0-6) stood at 0 units; in assay [2] (90 mg IN+SOC, second subject (not given)), 0 units. Besides, the “subjects who experienced MADRS Item 10 response” value in assay [2] (24 hours post-dose) stood at 94.1%; in assay [2] (Day 16), 100%; in assay [2] (study end (Day 29/30)), 100%. Further, the “MADRS Item 10 mean score” value in assay [2] (Day 1) was found to be 0.8; in assay [2] (Day 29) it was 0.0. Also, the “MADRS Suicide Item-10 response rate” value in assay [2] (Day 1) was 94%; in assay [2] (Day 16) it was 100%.
